Laboratory results taken from ChEMBL document CHEMBL3046480, “Synthesis of damnacanthal, a naturally occurring 9,10-anthraquinone and its analogues, and its biological evaluation against five cancer cell lines” (Med Chem Res, 2013).
Calls of active or inactive are those of the source. The rule behind the calls is not given here.

What was measured:
[1] = Antioxidant activity measured after 3 min by ferric thiocyanate method; format: functional
DU-145 = experiment: Cytotoxicity against Homo sapiens (human) DU145 cells assessed as inhibition of cell survival after 96 hr by MTT assay; format: functional, cell-based
[2] = Cytotoxicity against Homo sapiens (human) H460 cells assessed as inhibition of cell survival after 96 hr by MTT assay; format: functional, cell-based, NCI-H460
MES-SA = experiment: Cytotoxicity against Homo sapiens (human) MES-SA cells assessed as inhibition of cell survival after 96 hr by MTT assay; format: functional, cell-based
MCF7 = experiment: Cytotoxicity against Homo sapiens (human) MCF7 cells assessed as inhibition of cell survival after 96 hr by MTT assay; format: functional, cell-based
[3] = Cytotoxicity against Homo sapiens (human) MES-SA/Dx5 cells assessed as inhibition of cell survival after 96 hr by MTT assay; format: functional, cell-based
[4] = Antioxidant activity measured after 10 min by thiobarbituric acid method; format: functional
[5] = Homo sapiens, DU-145, 96 h, read-out: IC50
[6] = Homo sapiens, NCI-H460, 96 h, read-out: IC50
[7] = Homo sapiens, MCF7, 96 h, read-out: IC50
[8] = Homo sapiens, MES-SA, 96 h, read-out: IC50
[9] = Homo sapiens, MES-SA/Dx5, 96 h, read-out: IC50

| Compound | Activity [1] | IC50 (DU-145; [5]) [µM] | IC50 [2, 6] [µM] | IC50 (MES-SA; mes-sa) | IC50 (MCF7; [7]) [µM] | IC50 ([3]; mes-sa/dx5) | IC50 (MES-SA; [8]) [µM] | IC50 [3, 9] [µM] | Activity [4] | IC50 ([2]; nci-h460) | IC50 (DU-145; du-145) | IC50 (MCF7; mcf7) |
| --- | --- | --- | --- | --- | --- | --- | --- | --- | --- | --- | --- | --- |
| COc1ccc2c(c1)C(=O)c1ccccc1C2=O [2-METHOXYANTHRAQUINONE] | inactive | 70 | 68 | Not Active | 68 | Not Active | – | – | – | – | – | – |
| O=C1c2ccccc2C(=O)c2c(Br)cc(O)cc21 | inactive | 44 | 43 | – | 27 | – | 56 | 29 | – | – | – | – |
| COc1c(C=O)c(O)c(Br)c2c1C(=O)c1ccccc1C2=O | inactive | 34 | 32 | Not Active | 19 | Not Active | – | – | – | – | – | – |
| O=C1c2ccccc2C(=O)c2c(O)cc(O)cc21 [XANTHOPURPURIN] | inactive | 29 | 23 | – | 55 | – | 30 | 21 | – | – | – | – |
| Cc1c(O)cc2c(c1O)C(=O)c1ccccc1C2=O [Rubiadin] | inactive | 32 | 42 | – | 56 | – | 38 | 35 | – | – | – | – |
| O=Cc1c(O)cc2c(c1O)C(=O)c1ccccc1C2=O | Active | 42 | 40 | – | 36 | Not Active | 18 | – | Active | – | – | – |
| COc1c(C)c(OC(C)=O)cc2c1C(=O)c1ccccc1C2=O | inactive | 27 | – | Not Active | 26 | Not Active | – | – | – | Not Active | – | – |
| O=C1c2ccccc2C(=O)c2c(O)cccc21 [1-HYDROXYANTHRAQUINONE] | inactive | – | – | Not Active | – | Not Active | – | – | – | Not Active | Not Active | Not Active |
| COc1cc2c(c(OC)c1C(Br)Br)C(=O)c1ccccc1C2=O | inactive | 28 | 23 | – | 27 | – | 10 | 7 | – | – | – | – |
| O=C1c2ccccc2C(=O)c2c(O)cc(Br)cc21 | inactive | – | – | Not Active | – | Not Active | – | – | – | Not Active | Not Active | Not Active |
| O=C1c2ccccc2C(=O)c2cc(O)ccc21 [2-HYDROXYANTHRAQUINONE] | inactive | 72 | 66 | Not Active | 69 | Not Active | – | – | – | – | – | – |
| COc1ccc(C)c2c1C(=O)c1ccccc1C2=O | inactive | 48 | 54 | – | 55 | Not Active | 19 | – | – | – | – | – |
| CC(=O)Oc1cc2c(c(O)c1C)C(=O)c1ccccc1C2=O | inactive | 37 | 68 | Not Active | 56 | Not Active | – | – | – | – | – | – |
| CCOCc1c(OC(C)=O)cc2c(c1OC)C(=O)c1ccccc1C2=O | inactive | 23 | – | Not Active | 30 | Not Active | – | – | – | Not Active | – | – |
| COc1c(C=O)c(O)cc2c1C(=O)c1ccccc1C2=O [DAMNACANTHAL] | Active | 26 | 25 | Not Active | 11 | Not Active | – | – | Active | – | – | – |
| COc1cc2c(c(O)c1CBr)C(=O)c1ccccc1C2=O | inactive | 26 | 30 | – | 34 | Not Active | 4 | – | – | – | – | – |

| Compound | Activity [1] | IC50 (DU-145; [5]) [µM] | IC50 [2, 6] [µM] | IC50 (MES-SA; mes-sa) | IC50 (MCF7; [7]) [µM] | IC50 ([3]; mes-sa/dx5) | IC50 (MES-SA; [8]) [µM] | IC50 [3, 9] [µM] | Activity [4] | IC50 ([2]; nci-h460) | IC50 (DU-145; du-145) | IC50 (MCF7; mcf7) |
| --- | --- | --- | --- | --- | --- | --- | --- | --- | --- | --- | --- | --- |
| COc1ccc(OC)c2c1C(=O)c1ccccc1C2=O [1,4-DIMETHOXYANTHRAQUINONE] | inactive | 69 | 71 | Not Active | 70 | Not Active | – | – | – | – | – | – |
| O=C1c2ccccc2C(=O)c2c1ccc(O)c2O | Active | – | – | – | – | – | – | – | Active | – | – | – |
| Cc1ccc(O)c2c1C(=O)c1ccccc1C2=O | inactive | – | – | Not Active | – | Not Active | – | – | – | Not Active | Not Active | Not Active |
| COc1cc2c(c(OC)c1CBr)C(=O)c1ccccc1C2=O | inactive | 4 | 5 | – | 8 | – | 2 | 2 | – | – | – | – |
| O=C1c2ccccc2C(=O)c2c(O)ccc(O)c21 [QUINIZARIN] | inactive | – | – | Not Active | – | Not Active | – | – | – | Not Active | Not Active | Not Active |
| O=C1c2ccccc2C(=O)c2c(Br)ccc(O)c21 | inactive | 27 | 20 | – | 36 | – | 14 | 20 | – | – | – | – |
| COc1c(CBr)c(OC(C)=O)cc2c1C(=O)c1ccccc1C2=O | inactive | 5 | 26 | Not Active | 6 | Not Active | – | – | – | – | – | – |
| CCOCc1c(OC)cc2c(c1OC)C(=O)c1ccccc1C2=O | inactive | – | – | Not Active | – | Not Active | – | – | – | Not Active | Not Active | Not Active |
| O=C1c2ccccc2C(=O)c2cc(Br)c(O)cc21 | inactive | – | – | Not Active | – | Not Active | – | – | – | Not Active | Not Active | Not Active |
| COc1ccc(O)c2c1C(=O)c1ccccc1C2=O | inactive | 74 | 82 | Not Active | 79 | Not Active | – | – | – | – | – | – |
| Cc1c(O)c(Br)c2c(c1O)C(=O)c1ccccc1C2=O | inactive | 31 | 19 | – | 28 | – | 20 | 30 | – | – | – | – |
| Cc1cc(C(C)(C)C)c(O)c(C(C)(C)C)c1 | Active | – | – | – | – | – | – | – | – | – | – | – |
| COc1cc2c(c(OC)c1C=O)C(=O)c1ccccc1C2=O | inactive | 32 | 65 | – | 55 | Not Active | 5 | – | – | – | – | – |
| VITAMIN E | Active | – | – | – | – | – | – | – | – | – | – | – |
| COc1cc2c(c(OC)c1C)C(=O)c1ccccc1C2=O | inactive | – | – | Not Active | – | Not Active | – | – | – | Not Active | Not Active | Not Active |
| CCOCc1c(O)cc2c(c1OC)C(=O)c1ccccc1C2=O | inactive | 50 | – | Not Active | 35 | Not Active | – | – | – | Not Active | – | – |
